Experimental data as given in PMC9884426, “A phase 1 clinical trial of the repurposable acetyllysine mimetic, n-methyl-2-pyrrolidone (NMP), in relapsed or refractory multiple myeloma” (Clinical Epigenetics, 2023).
Like-named read-outs stand apart in the source and are kept apart here.

Assay: Plasma pharmacokinetics of oral NMP by LCMSMS
Type: in vivo, human
Conditions: for AUC / Cmax / half-life / Tmax: human, po
Experimental: Blood samples were taken from patients before NMP and at one, two, four, eight and 24 h post dose. Plasma samples (20 μl) were prepared by adding five volumes of methanol containing deuterated internal standard. The samples were vortexed then centrifuged, and the supernatant was transferred to a vial and injected onto the LCMSMS. The LCMSMS system consisted of a Shimadzu UHPLC with a SCIEX 6500QTrap, a KinetexC18 (3 × 50 mm, 2.6 μm) column and using a gradient of 0.1% formic acid and acetonitrile. The initial conditions were 0.5 ml/min and 2% acetonitrile; this was held for 1 min then increased to 20% acetonitrile at 2 min then increased to 70% acetonitrile and held for 0.5 min. Equilibration time was 0.5 min. MRMs for NMP were 100 → 58, 100 → 69, 100 → 41 and for the internal standard d9NMP 109 → 62, […]. PK analysis was performed using Pkanalix (version 2021R1. Antony, France: Lixoft SAS, 2021).

[1] = all dose levels 25-800 mg oral, N = 28 profiles, plasma

Structure (SMILES): CN1CCCC1=O [NMP, N-methyl-2-pyrrolidone]
- Maximum plasma concentration (Cmax), highest achieved (800 mg dose, oral, one patient): 16700 ng/mL
- CL/F, Overall Average [1]: 19.25 L⋅h⁻¹
- Half-life, Overall Average [1]: ~ 1.5 h
- V/F, Overall Average [1]: 39.49 L
- Tmax, Overall Average (all dose levels 25-800 mg oral, N = 29 profiles, plasma): 33 min
- single NMP dose predicted to be required to attain BET-inhibitory peak plasma concentrations (e.g. > 1 mM peak plasma, based on NMP's PK): more than 4.5 g
- AUC (plasma, 25 mg, oral 25 mg, patient RMH-01 occasion 6, plasma, read-out: AUC): 1500 ng·h/mL
- Cmax (plasma, 25 mg, oral 25 mg, patient RMH-01 occasion 6, plasma, read-out: Cmax): 930 ng/mL
- half-life (plasma, 25 mg, oral 25 mg, patient RMH-01 occasion 6, plasma, read-out: Half-life (converted)): 52.2 min
- Tmax (plasma, 25 mg, oral 25 mg, patient RMH-01 occasion 6, plasma, read-out: Tmax): 30 min
- AUC (plasma, 50 mg, oral 50 mg, average of N = 5 profiles, plasma, read-out: AUC, Average): 2170 ng·h/mL
- Cmax (plasma, 50 mg, oral 50 mg, average of N = 5 profiles, plasma, read-out: Cmax, Average): 1260 ng/mL
- half-life (plasma, 50 mg, oral 50 mg, average of N = 5 profiles, plasma, read-out: Half-life, Average (converted)): 64.8 min
- Tmax (plasma, 50 mg, oral 50 mg, average of N = 5 profiles, plasma, read-out: Tmax, Average): 30 min
- AUC (plasma, 50 mg, oral 50 mg, individual profiles, patient RMH-01 occasions 1-5, plasma, read-out: AUC): 2830 ng·h/mL
- Cmax (plasma, 50 mg, oral 50 mg, individual profiles, patient RMH-01 occasions 1-5, plasma, read-out: Cmax): 1720 ng/mL
- half-life (plasma, 50 mg, oral 50 mg, individual profiles, patient RMH-01 occasions 1-5, plasma, read-out: Half-life (converted)): 72.6 min
- Tmax (plasma, 50 mg, oral 50 mg, individual profiles, patient RMH-01 occasions 1-5, plasma, read-out: Tmax): 30 min
- AUC (plasma, 100 mg, oral 100 mg, average of N = 5 profiles, plasma, read-out: AUC, Average): 7130 ng·h/mL
- Cmax (plasma, 100 mg, oral 100 mg, average of N = 5 profiles, plasma, read-out: Cmax, Average): 2570 ng/mL
- half-life (plasma, 100 mg, oral 100 mg, average of N = 5 profiles, plasma, read-out: Half-life, Average (converted)): 110 min
- Tmax (plasma, 100 mg, oral 100 mg, average of N = 5 profiles, plasma, read-out: Tmax, Average): 30 min
- AUC (plasma, 100 mg, oral 100 mg, individual profiles, patient RMH-02 occasions 1-5, plasma, read-out: AUC): 6970 ng·h/mL
- Cmax (plasma, 100 mg, oral 100 mg, individual profiles, patient RMH-02 occasions 1-5, plasma, read-out: Cmax): 2730 ng/mL
- half-life (plasma, 100 mg, oral 100 mg, individual profiles, patient RMH-02 occasions 1-5, plasma, read-out: Half-life (converted)): 101 min
- Tmax (plasma, 100 mg, oral 100 mg, individual profiles, patient RMH-02 occasions 1-5, plasma, read-out: Tmax): 30 min
- half-life (plasma, 200 mg, oral 200 mg, average of N = 8 profiles, plasma, read-out: Half-life, Average (converted)): 88.2 min
- AUC (plasma, 200 mg, oral 200 mg, average of N = 9 profiles, plasma, read-out: AUC, Average): 9510 ng·h/mL
- Cmax (plasma, 200 mg, oral 200 mg, average of N = 9 profiles, plasma, read-out: Cmax, Average): 4050 ng/mL
- Tmax (plasma, 200 mg, oral 200 mg, average of N = 9 profiles, plasma, read-out: Tmax, Average): 33.6 min
- half-life (plasma, 200 mg, oral 200 mg, individual profiles (PMC-03, MON-04, MON-06, MON-07, PMC-08), plasma, read-out: Half-life (converted)): 84 min
- Tmax (plasma, 200 mg, oral 200 mg, individual profiles (PMC-03, MON-04, PMC-05, MON-06, MON-07, PMC-08), plasma, read-out: Tmax): 30 min
- AUC (plasma, 300 mg, oral 300 mg, average of N = 3 profiles, plasma, read-out: AUC, Average): 22200 ng·h/mL
- Cmax (plasma, 300 mg, oral 300 mg, average of N = 3 profiles, plasma, read-out: Cmax, Average): 8060 ng/mL
- half-life (plasma, 300 mg, oral 300 mg, average of N = 3 profiles, plasma, read-out: Half-life, Average (converted)): 96 min
- Tmax (plasma, 300 mg, oral 300 mg, average of N = 3 profiles, plasma, read-out: Tmax, Average): 40.2 min
- Cmax (plasma, 300 mg, oral 300 mg, individual profiles (PMC-09, MON-10, MON-11), plasma, read-out: Cmax): 10500 ng/mL
- half-life (plasma, 300 mg, oral 300 mg, individual profiles (PMC-09, MON-10, MON-11), plasma, read-out: Half-life (converted)): 99.6 min
- Tmax (plasma, 300 mg, oral 300 mg, individual profiles (PMC-09, MON-10, MON-11), plasma, read-out: Tmax): 30 min
- AUC (plasma, 400 mg, oral 400 mg, average of N = 2 profiles, plasma, read-out: AUC, Average): 22200 ng·h/mL
- Cmax (plasma, 400 mg, oral 400 mg, average of N = 2 profiles, plasma, read-out: Cmax, Average): 8310 ng/mL
- half-life (plasma, 400 mg, oral 400 mg, average of N = 2 profiles, plasma, read-out: Half-life, Average (converted)): 94.2 min
- Tmax (plasma, 400 mg, oral 400 mg, average of N = 2 profiles, plasma, read-out: Tmax, Average): 30 min
- AUC (plasma, 400 mg, oral 400 mg, individual profiles (MON-11 occasion 2, MON-12), plasma, read-out: AUC): 28500 ng·h/mL
- Cmax (plasma, 400 mg, oral 400 mg, individual profiles (MON-11 occasion 2, MON-12), plasma, read-out: Cmax): 8990 ng/mL
- half-life (plasma, 400 mg, oral 400 mg, individual profiles (MON-11 occasion 2, MON-12), plasma, read-out: Half-life (converted)): 107 min
- Tmax (plasma, 400 mg, oral 400 mg, individual profiles (MON-11 occasion 2, MON-12), plasma, read-out: Tmax): 30 min
- AUC (plasma, 500 mg, oral 500 mg, patient MON-11 occasion 3, plasma, read-out: AUC): 40600 ng·h/mL
- Cmax (plasma, 500 mg, oral 500 mg, patient MON-11 occasion 3, plasma, read-out: Cmax): 12700 ng/mL
- half-life (plasma, 500 mg, oral 500 mg, patient MON-11 occasion 3, plasma, read-out: Half-life (converted)): 119 min
- Tmax (plasma, 500 mg, oral 500 mg, patient MON-11 occasion 3, plasma, read-out: Tmax): 30 min
- AUC (plasma, 600 mg, oral 600 mg, patient MON-11 occasion 4, plasma, read-out: AUC): 56700 ng·h/mL
- Cmax (plasma, 600 mg, oral 600 mg, patient MON-11 occasion 4, plasma, read-out: Cmax): 14400 ng/mL
- half-life (plasma, 600 mg, oral 600 mg, patient MON-11 occasion 4, plasma, read-out: Half-life (converted)): 130 min
- Tmax (plasma, 600 mg, oral 600 mg, patient MON-11 occasion 4, plasma, read-out: Tmax): 30 min
- AUC (plasma, 700 mg, oral 700 mg, patient MON-11 occasion 5, plasma, read-out: AUC): 57600 ng·h/mL
- Cmax (plasma, 700 mg, oral 700 mg, patient MON-11 occasion 5, plasma, read-out: Cmax): 12400 ng/mL
